# Data: patent US10993920B2, “2-dodecyl-6-methoxycyclohexa-2,5-diene-1,4-dione as a cancer therapeutic” (MIDDLE TENNESSEE STATE UNIVERSITY, priority 2014, dated 2021)
# Columns and labels:
# caspase 8 in MCF-7 cells = assay: Caspase-Glo 8 activation assay; type: cell-based, human; conditions: MCF-7, 4 h, depending on the concentration
# Experimental: (§1) Caspase 3/7 and caspase 8 activities were analyzed using an in-situ luminescent maker in MCF-7 and BT20 cells respectively. Cells were seeded in a white 96-well plate (Greiner), treated with 100 μM DMDD for 4 h. Caspases activity was then determined using the Caspase-Glo 3/7 Assay (Promega) or the Caspase-Glo 8 Assay (Promega) according to the manufacturer's instructions. Briefly, cells were incubated with Caspase-Glo 3/7 substrate or Caspase-Glo 8 substrate and the luminescence of each sample was measured using a SpectraMax M2e Microplate Reader (Molecular Devices).
# caspase 8 in BT20 cells = assay: Caspase-Glo 8 activation assay; type: cell-based, human; conditions: BT20, 4 h, depending on the concentration
# Experimental: as §1
# [1] = tested on: NF-κB nuclear translocation in BT20 cells; assay: Inhibition of TNF-α activated NF-κB translocation (HCS); type: cell-based, human; conditions: BT20, 10 ng/ml TNF-α; 10 μM more significant than 32 and 100 μM
# BT20 [2] = assay: Anti-proliferation assay (PrestoBlue) and IC50 determination; type: cell-based, human
# Experimental: (§2) BT20 and MCF-7, human breast carcinoma cell lines (ATCC), were maintained in RPMI 1640 and Dulbecco's Modified Eagle Medium (DMEM) (Sigma), respectively. THP-1, a human monocytic leukemic cell line (ATCC), was maintained in RPMI 1640. HMEC, a normal human mammary epithelial cell line (ATCC), was maintained in McCoy's 5A (ATCC). All mediums were supplemented with 10% fetal bovine serum (FBS) (Gibco) and 1% penicillin-streptomycin and all cells were incubated in a humidified atmosphere with 5% CO2 at 37° C.
# (§3) The proliferation inhibition potential of DMDD was determined in human breast cancer cell lines MCF-7 and BT20 by a fluorescence dye staining method with the normal cell line HMEC serving as a control. Cells were seeded at a density of 4˜5×10^3 cells/well in a 96-well tissue culture-treated plate (Corning Costar) and were incubated overnight. They were then treated with DMDD at final concentrations of 320 μM, 100 μM, 32 μM, 10 μM, 3.2 μM, 1 μM, and 0.32 μM. An experimental control with cells only was also included. After incubation for 48 h, the viability of cells was assessed using PrestoBlue dye (Invitrogen) according to manufacturer's protocol. The fluorescence intensity was measured on a SpectraMax M2e microplate reader (Molecular Devices, Inc.) at a fluorescent excitation wavelength of 555 nm and emission wavelength of 590 nm. The results were expressed as a percentage, relative to untreated control cells, and the half maximal inhibitory concentration (IC50) values were calculated using non-linear regression analysis.
# MCF-7 [3] = assay: as above; type: cell-based, human
# Experimental: as §2, §3
# [4] = diabetic mouse model; cited from earlier work
# BT20 [5] = assay: Cell cycle analysis (PI staining); type: cell-based, human; conditions: BT20, 24 h; increased from 46%; not concentration-dependent
# Experimental: (§4) MCF-7 and BT20 cells were first synchronized in the G0 phase by culturing cells for 24 h in serum-free medium, and then treated with 100 μM DMDD for 24 h. Cell cycle analysis was performed using propidium iodide (PI) (Millipore) staining as described (27). Cells were analyzed using a Guava flow cytometer with InCyte software (Millipore).
# MCF-7 [6] = assay: Cell cycle analysis (PI staining); type: cell-based, human; conditions: MCF-7, 24 h; increased from 52%; not concentration-dependent
# Experimental: as §4
# [7] = tested on: NF-κB nuclear translocation in MCF-7 cells; assay: Inhibition of TNF-α activated NF-κB translocation (HCS); type: cell-based, human; conditions: MCF-7, 2 h, 10 ng/ml TNF-α; concentration-dependent
# Experimental: MCF-7 cells were seeded in a 96 well plate (Corning Costar) at a density of 8,000 cells/well and then treated with 100 μM DMDD for 2 h, followed by the addition of 10 ng/ml tumor necrosis factor-alpha (TNF-α) (Sigma). Untreated cells and cells treated with 10 ng/ml TNF-α alone served as controls. Cells were fixed, permeabilized, and sequentially stained with Nuclear factor kappa B (NF-κB) primary antibody, Dylight 488-conjugated secondary antibody, and Hoechst 33342 dye. The Hoechst and DyLight fluorophores detect changes in nuclear morphology (blue fluorescence) and NF-κB distribution (green fluorescence), respectively. The samples were analyzed on an Arrayscan VTI HCS Reader (Thermo Scientific). The Nuclear Translocation BioApplication (Thermo Scientific) was used for image acquisition and analysis. For each well, at least 400 cells were automatically acquired and analyzed. The translocation index was calculated by measuring the average intensity difference of NF-κB between the identified cytoplasmic region and nuclear region (MEAN_CircRingAvgIntenDiffCh2).
# [8] = tested on: caspase-3, -8, -9 expression in pancreas tissue; conditions: pancreas tissue of mice; cited from earlier work
# [9] = single dose 5,000 mg/kg body weight; cited from earlier work
# BT20 [10] = assay: Oxidative stress determination (DHE, HCS); type: cell-based, human; conditions: 48 h
# Experimental: (§5) MCF-7 and BT20 cells were seeded in a 96-well tissue culture-treated plate (Corning Costar) at a density of 8,000 cells/well and were subsequently treated with different concentrations (10, 32, 100 μM) of DMDD for 48 h. Non-treated cells served as negative control, and cells treated with 1 μM Retenone served as positive control. Afterwards, the cells were stained with Hoechst 33342 (Thermo Scientific) and dihydroethidium (DHE) (Sigma), fixed and evaluated on an ArrayScan VTI HCS Reader (Thermo Scientific). The generation of ROS in cells was quantified by the oxidation of non-fluorescent DHE to fluorescent ethidium, which subsequently binds to DNA. The Nuclear Translocation BioApplication software (Thermo Scientific) was used for image acquisition and analysis. For each well, at least 400 cells were automatically acquired and analyzed. Oxidative stress activation was assessed by the DHE staining in the nucleus and measured by the average intensity of fluorescent ethidium in the identified nuclear region (MEAN_CircAvgIntenCh2).
# MCF-7 [11] = assay: Oxidative stress determination (DHE, HCS); type: cell-based, human; conditions: 48 h
# Experimental: as §5
# THP-1 = assay: AlamarBlue cell viability of THP-1 cells; type: cell-based, human; conditions: with or without LPS stimulation
# Experimental: (§6) THP-1 cells were seeded in a 96 well plate at a density of 5×10^5 cells/well, and incubated with 100 nM phorbol-12-myristate-13-acetate (PMA) (Sigma) for 72 h. After washing the wells with warm RPMI 1640 medium, cells were pretreated with various concentrations of DMDD (10, 32, 100 μM) for 30 minutes followed by 100 ng/ml Salmonella enterica serotype typhimurium lipopolysaccharide (LPS) (Sigma). Dexamethasone at 1 μM (Sigma) was used as a positive control. After 4 h of stimulation, supernatants were collected for the quantification of human TNF-α using the Duoset enzyme-linked immunosorbent assay (ELISA) development kit (R&D Systems). AlamarBlue cell viability reagent (Invitrogen) was used to access cell integrity, after the supernatant was removed, at a fluorescent excitation wavelength of 555 nm and emission wavelength of 590 nm.
# HMEC = assay: Anti-proliferation assay (PrestoBlue), normal cell control; type: cell-based, human; conditions: for cell death: HMEC
# Experimental: as §2, §3
# [12] = tested on: caspase 3/7 in BT20 cells; assay: Caspase-Glo 3/7 activation assay; type: cell-based, human; conditions: BT20, 4 h, concentration-dependent
# BT20 [13] = assay: Apoptosis assay (Annexin V/7-AAD); type: cell-based, human; conditions: BT20, 48 h, concentration-dependent
# Experimental: (§7) MCF-7 and BT20 cells were seeded in a 96-well plate (Corning Costar) at a density of 8,000 cells/well and were subsequently treated with different concentrations (10, 32, 100 μM) of DMDD for 48 h. Afterwards, the cells were stained with Annexin V (Millipore) and 7-Aminoactinomycin (7-AAD) (Millipore), and analyzed on a Guava flow cytometer using InCyte software (Millipore).
# MCF-7 [14] = assay: Apoptosis assay (Annexin V/7-AAD); type: cell-based, human; conditions: MCF-7, 48 h, concentration-dependent
# Experimental: as §7
# [15] = tested on: LPS-induced TNF-α production in THP-1 cells; assay: Human TNF-α ELISA, LPS induced THP-1 cells; type: cell-based; conditions: THP-1, 12.5-50 μM pretreatment 30 min, 100 ng/ml LPS 4 h
# Experimental: as §6, with “After washing the wells with warm RPMI 1640 medium, cells were pretreated with various concentrations of DMDD (10, 32, 100 μM) for 30 minutes followed by 100 ng/ml Salmonella enterica serotype typhimurium lipopolysaccharide (LPS) (Sigma).” left out
# BT20 [16] = assay: Cytochrome c release assay; type: cell-based, human; conditions: BT20, 48 h
# Experimental: (§8) MCF-7 and BT20 cells were seeded in a 96-well plate (Corning Costar) at a density of 8,000 cells/well and were subsequently treated with 100 μM of DMDD for 48 h. The percentage of cells releasing cytochrome c from mitochondria was determined using the FlowCellect Cytochrome c Kit (Millipore) according to the manufacturer's protocol. Briefly, cells were permeabilized, fixed, and stained with either anti-IgG1-FITC Isotype control or anti-Cytochrome c-FITC dye. Data was acquired and analyzed using a Guava flow cytometer and InCyte software (Millipore).
# MCF-7 [17] = assay: Cytochrome c release assay; type: cell-based, human; conditions: MCF-7, 48 h
# Experimental: as §8
# BT20 [18] = assay: Multi parameter cytotoxicity measurement (HCS); type: cell-based, human
# Experimental: (§9) MCF-7 and BT20 cells were seeded in a 96-well plate (Corning Costar) at a density of 4,000 cells/well and subsequently treated with different concentrations (10, 32, 100 μM) of DMDD for 48 h. Non-treated cells and cells treated with 100 μM Valinomycin were used as negative (control) and positive controls, respectively. Afterwards, the cells were stained with a mixture of fluorescent dyes including Hoechst 33342, cell permeability dye and mitochondrial membrane potential dye (Thermo Scientific). These dyes indicated changes in nuclear morphology (Channel 1), cell membrane permeability (Channel 2) and mitochondrial transmembrane potential (Channel 3), respectively. The cells were fixed and washed, and images for each fluoroprobe were acquired at different channels using suitable filters with a 20× objective and analyzed on the Arrayscan VTI HCS Reader (Thermo Scientific). The Cell Health Profiling BioApplication (Thermo Scientific) was used for image acquisition and analysis. For each well, at least 400 cells were automatically acquired and analyzed. The average fluorescent intensity was used to quantify changes in each channel.
# MCF-7 [19] = assay: Multi parameter cytotoxicity measurement (HCS); type: cell-based, human; conditions: MCF-7, 48 h, dose-dependent
# Experimental: as §9
# [20] = tested on: caspase 3/7 in MCF-7 cells; assay: Caspase-Glo 3/7 activation assay; type: cell-based, human; conditions: MCF-7, 4 h, concentration-dependent
# Experimental: as §1, with “Cells were seeded in a white 96-well plate (Greiner), treated with 100 μM DMDD for 4 h.” left out
structure (smiles),measurement,setting,value
"CCCCCCCCCCCCC1=CC(=O)C=C(OC)C1=O [DMDD, 2-dodecyl-6-methoxycyclohexa-2,5-diene-1,4-dione]",caspase 8 activity increase,caspase 8 in MCF-7 cells,2-5 fold
same,caspase 8 activity increase,caspase 8 in BT20 cells,2-5 fold
same,inhibition of TNF-α-induced NF-κB nuclear translocation,[1],significant inhibition
same,cell death,"BT20 [2]; BT20, 3.2 μM",43.8%
same,cell death,"BT20 [2]; BT20, 10 μM",63.5%
same,IC50,"BT20 [2]; Homo sapiens, BT-20, BT20, 48 h treatment",5.03 µM
same,IC50,"MCF-7 [3]; Homo sapiens, MCF7, MCF-7, 48 h treatment",3.44 µM
same,cell death,"MCF-7 [3]; MCF-7, 3.2 μM",49.9%
same,cell death,"MCF-7 [3]; MCF-7, 10 μM",84.5%
same,effective dosage,[4],12.5 to 25 mg/kg
same,percentage of G1 phase cells,BT20 [5],65%
same,percentage of G1 phase cells,MCF-7 [6],71%
same,inhibition of TNF-α-induced NF-κB nuclear translocation,[7],significant inhibition
same,"caspase-3, -8, -9 expression",[8],significantly reduced
same,acute toxicity,[9],did not cause any acute toxicity
same,ROS level versus untreated control,"BT20 [10]; BT20, 10 μM",nearly two-fold
same,ROS level versus non-treated control,"BT20 [10]; BT20, 33 μM",nearly three-fold
same,ROS level versus untreated control,"BT20 [10]; BT20, 100 μM",nearly two-fold
same,ROS level versus untreated control,"MCF-7 [11]; MCF-7, 10 μM",nearly two-fold
same,ROS level versus non-treated control,"MCF-7 [11]; MCF-7, 33 μM",nearly three-fold
same,ROS level versus untreated control,"MCF-7 [11]; MCF-7, 100 μM",nearly two-fold
same,viability of THP-1 cells,THP-1,did not affect the viability
same,cell death,HMEC; 3.2 μM,not affected
same,cell death,HMEC; 10 μM,12.7%
same,IC50,"HMEC; Homo sapiens, HMEC normal cells, 48 h treatment",48.1 µM
same,caspase 3/7 activity vs untreated cells,[12],increased significantly
same,apoptosis induction,BT20 [13],induced apoptosis
same,apoptosis induction,MCF-7 [14],induced apoptosis
same,TNF-α level in supernatants relative to LPS alone,[15],significant reduction
same,cytochrome c release from mitochondria,BT20 [16],released
same,cytochrome c release from mitochondria,MCF-7 [17],released
same,nuclear morphology,"BT20 [18]; BT20, 100 μM, 48 h",nuclear condensation
same,mitochondrial membrane potential,"BT20 [18]; BT20, 48 h, dose-dependent",loss of mitochondrial potential
same,plasma membrane permeability,"BT20 [18]; BT20, 48 h, dose-dependent",increased plasma membrane permeability
same,mitochondrial membrane potential,MCF-7 [19],loss of mitochondrial potential
same,plasma membrane permeability,MCF-7 [19],increased plasma membrane permeability
same,caspase 3/7 activity vs untreated cells,[20],increased significantly
